The results in this text go back to patent US10231971B2, “Pharmaceutical composition for preventing and treating dry eye diseases, containing imatinib as active ingredient” (AVIXGEN INC., priority 2015, dated 2019).

Test [1] deals with keratoconjunctivitis sicca (dry eye) animal model. Briefly: Corneal epithelium protection: lissamine green staining of the cornea in keratoconjunctivitis sicca model. The format is in vivo, Spraque-Dawley (SD) rats. As to the method: To carry out an experiment for dry corneal epithelial damage, a dry eye animal model was constructed. 8-week-old Spraque-Dawley (SD) rats (available from Orient Bio) were used as an animal, keratoconjunctivitis sicca was induced by administering an eye drop containing 0.1% benzalkonium chloride (Sigma Aldrich) in 1% atropine sulfate (Alcon) twice a day for 2 weeks.
The imatinib eye drop (1 mg/ml) was administered dropwise to an eye twice a day for 1 week after 7 days of administration of 1% atropine sulfate and 0.1% benzalkonium chloride. To compare therapeutic effects, a 0.05% Cyclosporin eye drop (Restasis, Allergan) was used as a reference drug.
Corneal epithelial damage was identified in the keratoconjunctivitis sicca animal model by staining a surface of the cornea with a 1% lissamin green solution and observing a damaged region thereof (see FIG. 1).
Damage to corneal epithelium cells due to dryness was identified in a keratoconjunctivitis sicca (dry eye)-induced cornea by staining a dried state of the corneal epithelium cells with lissamin green (see FIG. 1). […] A stained area after staining was expressed as a percentage (%) with respect to a total corneal area.

Test [2] has the same test system. The conditions noted are these: imatinib eye drop (0.1 mg/ml), twice a day for 1 week; FIG. 4.
Experimental: White SD rats were used as an animal, and keratoconjunctivitis sicca was induced by administering 1% atropine sulfate and 0.1% benzalkonium chloride dropwise to an eye twice a day for 2 weeks.
An imatinib eye drop (0.1 mg/ml) was administered dropwise to an eye twice a day for 1 week after 7 days of administration of 1% atropine sulfate and 0.1% benzalkonium chloride.
In order to observe corneal degeneration in the keratoconjunctivitis sicca (dry eye) model, F-actin staining was performed. F-actin was stained with phalloidin labeled with a fluorescent material.
Test [3] shares this test system. Briefly: Invasion of specific inflammatory cells into the cornea: LSP-1 immunostaining in keratoconjunctivitis sicca model. Type of test: in vivo, Spraque-Dawley (SD) rats. As to conditions: imatinib eye drop 0.1%. As for the experimental part:
An experiment was carried out using the same administration method as that used in the animal model of Example 1, and then an inflammation inhibitory effect of imatinib on specific inflammatory cells invaded into the cornea was identified.
To identify inflammatory cells in the cornea in keratoconjunctivitis sicca (dry eye), the eye was cryosectioned, and inflammatory cells having an antigen of LSP-1 were stained and observed (See FIG. 5). Inflammation-associated cells such as lymphocytes, neutrophils, and macrophages have LSP-1 can be observed after being immunostained using an LSP-1 antibody. Inflammatory cells were observed by 0.61±0.05 in a control (a drug-non-treated group) and by 0.52±0.05 in an imatinib eye drop (0.1%) (See FIG. 6).

Regarding `Cc1ccc(NC(=O)c2ccc(CN3CCN(C)CC3)cc2)cc1Nc1nccc(-c2cccnc2)n1` [imatinib], the “lissamine green stained area as percentage of total corneal area” value in test [1] (concentration-dependent efficacy test, 0.01% (0.1 mg/ml), vehicle control 12.8±1.98%, FIG. 3) amounted to 8.2±0.97%; in test [1] (concentration-dependent efficacy test, 0.05% (0.5 mg/ml), vehicle control 12.8±1.98%, FIG. 3) it was 6.18±0.9%; in test [1] (concentration-dependent efficacy test, 0.1% (1 mg/ml), vehicle control 12.8±1.98%, FIG. 3) it was 3.7±0.87%; in test [1] (concentration-dependent efficacy test, 0.5% (5 mg/ml), vehicle control 12.8±1.98%, FIG. 3), 3.5±1.1%; in test [1] (concentration-dependent efficacy test, 1.0% (10 mg/ml), vehicle control 12.8±1.98%, FIG. 3) it was 3.1±1.2%; in test [1] (imatinib 0.1% (1 mg/ml) eye drop, twice a day for 1 week, vehicle control 11±1.26%, FIG. 2), 2.6±0.39%. For the same compound, the “effect on lissamine green staining when administered according to concentration” value in test [1] (imatinib 0.01% to 1.0%, FIG. 3) was “concentration-dependent effect”. In test [2], the “corneal degeneration (keratinization of corneal epithelial cells, F-actin staining)” value is recorded as “not observed”. Further, the “effect on inflammation in keratoconjunctivitis sicca (inflammatory cell staining)” value in test [3] is “had an inflammation inhibitory effect”. Moreover, in test [3] (control (drug-non-treated group) 0.61±0.05, FIG. 6), the “inflammatory cells observed (LSP-1-stained cells in the cornea)” value amounted to 0.52±0.05.
